Assay results as given in patent publication US20030207813A1, “Retroviral protease inhibitor combinations” (priority 1995, published 2003).
Converted amounts (≈) assume the structure as drawn. Like-named read-outs stand apart in the source and are kept apart here.

Key:
[1] = tested on: RFRR (resistant strains selected from RF against Examples 1 and 2); assay: CEM-T4 cell infection assay, reverse transcriptase readout, resistant isolate RFRR; format: cell-based, HIV-1; details: Human immunodeficiency virus 1, 168 h, Table 6, CEM-T4 cells, 7 days, read-out: Virus Isolate (EC50 ng/mL) RFRR
Source text: (§1) RF represents the HIV-1 strain HIV-LRF and RFR represents a mixture of resistant strains obtained by selection of RF against the compound of Example 1. RFR comprises a mixture of viral strains having protease genotypes of G48V (14/40 clones); G48V, V82A (18/40 clones); G48V, L90S (2/40 clones); G48V, 154T, V82A (1/40 clones); G48M (1/40 clones); G48V, Q61H (1/40 clones); V13I, G48V (1/40 clones); G48V, F53L, V82A (1/40 clones); and G48V, V82A, C95Y (1/40 clones). RFR2 represents a mixture of resistant strains obtained by cloning RFR by three rounds of growth at limiting dilution. RFR2 comprises a mixture of viral strains having protease genotypes of G48V, V82A (13/15 clones); G17E, G48V, V82A (1/15 clones); and G48V, V82A, N37D, N88D (1/15 clones). RFRR represents a mixture of resistant strains obtained by selection of RF against the compounds of Examples 1 and 2 and then cloning by three rounds of growth at limiting dilution. RFRR comprises a mixture of viral strains having protease genotypes of G48V, 154T, L63P, V82A (7/9 clones); G48V, 154T, L63P, V82A, N88S (1/9 clones); and G48V, 154T, L63P, G73M, V82A (1/9 clones). SF162 represents the HIV-1 strain SF-162 and SF162R represents a mixture of resistant strains obtained by selection of SF162 against the compound of Example 1. SF162R comprises a mixture of viral strains having protease genotypes of M461, F53L, L63P, A71V, N88D (2/3 clones); and M46I, F53L, L63P, A71V, N88D, Q92R (1/3 clones). 89-959 represents the HIV-1 strain 89-959 and 89-959R represents a mixture of resistant strains obtained by selection of 89-959 against the compound of Example 2. 89-959R comprises a mixture of viral strains having protease genotypes of N88S (4/5 clones); and D25N, T26A, D30N, D37N, R41K, G73D, R87K, N88S (1/4 clones). NL4 represents the HIV-1 strain HIV-1NL4-3. NL4(G48V) represents a strain having a synthetically generated site-directed mutation in the protease from glycine to valine at amino acid position number 48. NL4(I84V) represents a strain having a synthetically generated site-directed mutation in the protease from isoleucine to valine at amino acid position number 84. NL4(R8Q,M46I) represents a strain having synthetically generated site-directed mutations in the protease from arginine to glutamine at amino acid position number 8 and methionine to isoleucine at amino acid position number 46. NL4(P22-538) represents a mixture of resistant strains obtained by selection of HIV-1NL4-3 against the compound of Example 10 after 22 passages comprising protease genotypes M46I, L63P, A71V, V82F, I84V (4/10); M46I, L63P, V82F, I84V (3/10); and M46I, A71V, V82F, I84V (3/10). NL4(P37-538) represents resistant strains obtained by selection of HIV-1NL4-3 against the compound of Example 10 after 37 passages comprising protease genotype M46I, L63P, A71V, 184A. NL4(538/524) represents resistant strains obtained by selection of NL4(P22-538) against the compound of Example 5 after 24 passages comprising protease genotype M46I, L63P, A71V, 184A. NL4(538/P7-AG) represents a mixture of resistant strains obtained by selection of NL4(P22-538) against the compound of Example 12 after 7 passages comprising protease genotypes M46I, L63P, A71V, 184A; and V321, V82I. NL4(538/P24-AG) represents resistant strains obtained by selection of NL4(P22-538) against the compound of Example 12 after 24 passages comprising protease genotype M46I, L63P, A71V, 184A. NLA(P19-003) represents resistant strains obtained by selection of HIV-1^NL4-3 against the compound of Example 9 after 19 passages comprising protease genotype R8K, M46I. NL4(P34-003) represents resistant strains obtained by selection of HIV-1^NL4-3 against the compound of Example 9 after 34 passages comprising protease genotype R8K, M46I, L63P, A71V, L90M.
The viral isolate resistance results summarized in Tables 4-6 were generated according to the following assay procedure or minor modifications thereof. Assays are performed in 96-well tissue culture plates. […]

[2] = tested on: HIV-1NL4-3; assay: microbe, parasite or virus in culture; format: cell-based; details: for EC50: Table 8, read-out: Virus Isolate (EC50 nM) NL4
Source text: (§2) RF represents the HIV-1 strain HIV-LRF and RFR represents a mixture of resistant strains obtained by selection of RF against the compound of Example 1. […] RFR2 represents a mixture of resistant strains obtained by cloning RFR by three rounds of growth at limiting dilution. […] RFRR represents a mixture of resistant strains obtained by selection of RF against the compounds of Examples 1 and 2 and then cloning by three rounds of growth at limiting dilution. […] SF162 represents the HIV-1 strain SF-162 and SF162R represents a mixture of resistant strains obtained by selection of SF162 against the compound of Example 1. […] 89-959 represents the HIV-1 strain 89-959 and 89-959R represents a mixture of resistant strains obtained by selection of 89-959 against the compound of Example 2. […] NL4 represents the HIV-1 strain HIV-1NL4-3. NL4(G48V) represents a strain having a synthetically generated site-directed mutation in the protease from glycine to valine at amino acid position number 48. NL4(I84V) represents a strain having a synthetically generated site-directed mutation in the protease from isoleucine to valine at amino acid position number 84. NL4(R8Q,M46I) represents a strain having synthetically generated site-directed mutations in the protease from arginine to glutamine at amino acid position number 8 and methionine to isoleucine at amino acid position number 46.

[3] = tested on: NL4(538/524); assay: Viral isolate resistance assay per Markowitz et al., NL4(538/524); format: cell-based, HIV-1; details: Human immunodeficiency virus 1; Table 10; NL4(P22-538) selected against Example 5, 24 passages
Source text: as §1, with “NLA(P19-003) represents resistant strains obtained by selection of HIV-1^NL4-3 against the compound of Example 9 after 19 passages comprising protease genotype R8K, M46I. NL4(P34-003) represents resistant strains obtained by selection of HIV-1^NL4-3 against the compound of Example 9 after 34 passages comprising protease genotype R8K, M46I, L63P, A71V, L90M.” left out

[4] = tested on: NL4(I84V); assay: Viral isolate resistance assay per Markowitz et al., NL4(I84V); format: cell-based, HIV-1; details: Human immunodeficiency virus 1, Table 7
Source text: as §2

[5] = tested on: NL4(538/P24-AG); assay: Viral isolate resistance assay per Markowitz et al., NL4(538/P24-AG); format: cell-based, HIV-1; details: Human immunodeficiency virus 1; Table 10; NL4(P22-538) selected against Example 12, 24 passages
Source text: as §1, with “NLA(P19-003) represents resistant strains obtained by selection of HIV-1^NL4-3 against the compound of Example 9 after 19 passages comprising protease genotype R8K, M46I. NL4(P34-003) represents resistant strains obtained by selection of HIV-1^NL4-3 against the compound of Example 9 after 34 passages comprising protease genotype R8K, M46I, L63P, A71V, L90M.” left out

[6] = Human immunodeficiency virus 1, NL4

Row | Compound | EC50 [1] [ng/mL] | EC90 ([2]; Human immunodeficiency virus 1, read-out: Virus Isolate (EC90 nM) NL4) [nM] | EC50 [2, 6] [nM] | EC50 [3] [nM] | EC90 [4] [nM] | EC50 [5] [nM] | EC90 ([2]; Human immunodeficiency virus 1, Table 7, EC90, NL4, read-out: Virus Isolate (EC90 nM) NL4) [nM]
1 | CNCC(=O)N[C@H](C(=O)N[C@@H](Cc1ccccc1)[C@H](O)CN(CCC(C)C)C(=O)NC(C)(C)C)C(C)(C)C [Example 2, (2R,3S)-3-(N-methylaminoacetyl-L-tert-butylglycinyl)amino-1-(N-isoamyl-N-(tert-butylcarbamoyl))amino-4-phenyl-2-butanol] | 1110 (≈ 2.08 µM) |  |  |  |  |  | 
2 | CC(C)(C)NC(=O)[C@@H]1CN(Cc2cccnc2)CCN1C[C@@H](O)C[C@@H](Cc1ccccc1)C(=O)N[C@H]1c2ccccc2C[C@H]1O [Example 5, N-(2(R)-Hydroxy-1(S)-indanyl)-2(R)-phenylmethyl-4(S)-hydroxy-5-(1-(4-(3-pyridylmethyl)-2(S)-N′-(t-butylcarboxamido)-piperazinyl))-pentaneamide] | 982 (≈ 1.6 µM) | 80 | 80 | 6400 | 640 | 6400 | 
3 | CC(C)(C)NC(=O)[C@@H]1CC2CCCC[C@@H]2CN1C[C@@H](O)[C@H](Cc1ccccc1)NC(=O)[C@H](CC(N)=O)NC(=O)c1ccc2ccccc2n1 (stereo in doubt) [Example 6, N-tert-Butyl decahydro-2-[2(R)-hydroxy-4-phenyl-3(S)-[[N-(2-quinolylcarbonyl)-L-asparaginyl]amino]butyl]-(4aR,8aS)-isoquinoline-3(S)-carboxamide] | 962 (≈ 1.43 µM) |  | 30 | 2400 | 90 | 2400 | 30
4 | CC(C)CN(C[C@@H](O)[C@H](Cc1ccccc1)NC(=O)[C@H](CC(N)=O)NC(=O)c1ccc2ccccc2n1)C(=O)NC(C)(C)C (relative stereo) [Example 1, [1S-[1R*(R*),2S*]]-N^1-[3-[[[(1,1-dimethylethyl)amino]carbonyl])2-methylpropyl)amino]-2-hydroxy-1-(phenylmethyl)propyl]-2-[(2-quinolinylcarbonyl)amino]-butanediamide] | 5610 (≈ 9.27 µM) |  |  |  |  |  | 
